{
  "source": "patent US20190262363A1",
  "about": "“ANTAGONIST OF MINERALOCORTICOID RECEPTOR FOR THE TREATMENT OF OSTEOARTHRITIS” (INSERM (INSTITUT NATIONAL DE LA SANTÉ ET DE LA RECHERCHE …, priority 2016, published 2019)",
  "tested_on": "knee joints of SHHF^cp/cp rats (metabolic syndrome associated osteoarthritis model) and lean SHHF^+/+ rats",
  "assay": "Chronic eplerenone treatment in lean SHHF+/+ and MetS SHHFcp/cp rats; knee joint histology and OARSI scoring",
  "format": "in vivo, rat",
  "text": "In this study were used lean SHHF^+/+ (spontaneously hypertensive heart failure) rats as controls and obese SHHF^cp/cp rats, which have been characterized as a good model for metabolic syndrome (MetS). […] The absence of eple means that the considered rats are part of a control placebo group.\nAnimals of both lean SHHF^+/+ and MetS SHHF^cp/cp genotypes were divided randomly into two groups. Group I (n=4 for SHHF^+/+ and n=4 for SHHF^cp/cp) was given placebo and group II (n=4 for SHHF^+/+ and n=9 for SHHF^cp/cp) was given 100 mg.kg-1.day-1 of the selective MRA eplerenone (pure active molecule provided by Pfizer) in drinking water from 1.5 months to 12.5 months of age. The knee joints of 1.5- and 12.5- month-old specimens of each group (untreated SHHF^+/+ and SHHF^cp/cp and their treated counterparts) were fixed in 4% paraformaldehyde, decalcified in EDTA-phosphate buffered solution and then embedded in paraffin. […] thick adjacent sections were stained with Toluidine Blue, Hematoxylin and Eosin or submitted to collagen II immunohistochemistry in order to investigate cartilage destruction, osteophyte formation and lesions of the synovial tissue, respectively. The corresponding scores following OARSI guidelines were done blindly by independent researchers.",
  "note": "“Also recorded” adds a separate entry of the source.",
  "data": [
    {"smiles": "COC(=O)[C@@H]1CC2=CC(=O)CC[C@]2(C)[C@@]23O[C@@H]2C[C@@]2(C)[C@@H](CC[C@@]24CCC(=O)O4)[C@H]13", "note": "[eplerenone, Pregn-4-ene-7,21-dicarboxylic acid, 9,11-epoxy-17-hydroxy-3-oxo-,y-lactone, methyl ester, (7α,11α,17β)]", "values": [
      {"measurement": "Cartilage histology (toluidine blue): fibrillations and loss of proteoglycans", "setting": "12.5SHHF^cp/cp Eple knee joints vs untreated 12.5SHHF^cp/cp, FIG. 1D vs. 1C", "result": "markedly reduced fibrillations and loss of proteoglycans"},
      {"measurement": "Osteophytes, collagen II immunostaining", "setting": "12.5SHHF^cp/cp Eple knee joints vs untreated 12.5SHHF^cp/cp, FIG. 2D vs. 2C", "result": "alleviated osteophytes"},
      {"measurement": "Synovial tissue histology (Hematoxylin & Eosin): inflammation and fibrosis", "setting": "12.5SHHF^cp/cp Eple knee joints vs untreated 12.5SHHF^cp/cp, FIG. 3D vs. 3C", "result": "attenuated inflammation and fibrosis of the synovial tissue"},
      {"measurement": "OARSI scoring of the joint cartilage degradation (cartilage alterations)", "setting": "12.5SHHF^cp/cp Eple rats vs placebo 12.5SHHF^cp/cp, 100 mg.kg-1.day-1 in drinking water from 1.5 to 12.5 months of age, FIG. 1E", "result": "prevents the degradation of joint cartilage; also recorded: drastically decreases the cartilage alterations"},
      {"measurement": "OARSI scoring of osteophyte (osteophyte formation)", "setting": "12.5SHHF^cp/cp Eple rats vs placebo 12.5SHHF^cp/cp, 100 mg.kg-1.day-1 in drinking water from 1.5 to 12.5 months of age, FIG. 2E", "result": "reduces osteophyte formation; also recorded: significantly hampers osteophyte formation"},
      {"measurement": "OARSI scoring of the joint inflammation (synovial inflammatory and fibrotic events)", "setting": "12.5SHHF^cp/cp Eple rats vs placebo 12.5SHHF^cp/cp, 100 mg.kg-1.day-1 in drinking water from 1.5 to 12.5 months of age, FIG. 3E", "result": "reduces the joint inflammation; also recorded: markedly reduces the level of inflammatory and fibrotic events"},
      {"measurement": "Knee joint phenotype", "setting": "MetS 12.5SHHF^cp/cp Eple rats treated from 1.5 months onward, compared to placebo 12.5SHHF^cp/cp", "result": "phenotypes very similar to those of their ^12.5SHHF^+/+ counterparts"},
      {"measurement": "Knee joint phenotype", "setting": "lean 12.5SHHF^+/+ eple rats, 100 mg.kg-1.day-1 in drinking water from 1.5 to 12.5 months of age", "result": "displayed normal phenotype"}
    ]}
  ]
}
